The numbers were not newly measured in patent US20220193028A1, “THERAPEUTIC COMBINATIONS, LIQUID PHARMACEUTICAL COMPOSITIONS, KITS FOR THEIR PREPARATION, AND METHODS OF THEIR USE” (priority 2019, published 2022), which cites them from elsewhere.

What is called IC50 is the concentration at which inhibition is half-maximal.

The target in the data set is AMPA receptor. As to conditions: non-competitive selective allosteric modulator of the AMPA receptor; read-out: IC50 (block of glutamate induced currents).

Consider `N#Cc1ccccc1-c1cc(-c2ccccn2)cn(-c2ccccc2)c1=O` [perampanel], for which the IC50 is approximately 0.56 µM.
